Results as given in US20090286731A1, “METHODS AND COMPOSITIONS FOR THE TREATMENT OF XEROSTOMIA” (THE REGENTS OF THE UNIVERSITY OF COLORADO, A BODY CORPORATE, priority 2006, published 2009).

Tests used:
[1] = test system: primary salivary acinar cells; test: Induction of apoptosis in primary salivary acinar cells (caspase-3 activity); type: cell-based, mouse
Description: In FIG. 3A, all adherent and nonadherent primary parotid acinar cells were collected and lysed in caspase lysis buffer (BioMol QuantiZyme Colormetric Assay kit) and 15 μg of cell lysate was used to analyze the level of enzyme activity for each sample in quadruplicate. The ability of the enzyme to cleave a chromogenic substrate was read at A405 every ten minutes for seven hours and the -fold increase relative to untreated parotid cells is plotted. […] In FIG. 3B, primary submandibular acinar cells were collected in caspase lysis buffer as described above and the -fold increase relative to untreated submandibular cells is plotted. […] Graphs of caspase activity represent all data points collected from five independent experiments and Student's t-test p values were calculated using Microsoft Excel comparing two different treatment groups.
Generation and cultivation of primary salivary acinar cells. Primary salivary acinar cells were prepared from 4-5 week old female FVB or myr-Akt1 transgenic mice. […]
Induction and quantitation of apoptosis. […] Activation of caspase 3 was quantitated using BioMol QuantiZyme Colormetric Assay kit (Plymouth Meeting, Pa.). […] Caspase-3 activity in 15 μg of cellular lysate was measured by the cleavage of Ac-DEVD-pNA substrate and absorbance at A405 was quantitated in a microtiter plate reader (Molecular Devices) at 10-minute intervals for 7 hrs.

[2] = test system: ATM and Chk1; test: Phosphorylation of ATM, Chk1 and p53 in myr-Akt1 primary salivary acinar cells (immunoblot); type: cell-based, mouse; conditions: with or without siRNA that targeted MDM2
Description: In FIG. 9A, primary salivary acinar cells isolated from myr-Akt1 mice were transfected with various control or MDM2 specific siRNA molecules. Cell lysates were collected 24-72 hrs after transfection and immunoblotted with an anti-MDM2 antibody (top panel) or anti-p53 (DO12, middle panel). […] In lanes 6 and 7, primary salivary acinar cells isolated from myr-Akt1 mice were transfected with siRNA molecules targeting MDM2 for 48 hrs.
Immunoblotting. Tissues were lysed in RIPA (150 mM NaCl, 50 mM Tris, pH 7.4, 2 mM EGTA, 1% Triton X-100, 0.25% sodium deoxycholate) supplemented with protease inhibitor cocktail (Sigma Chemical Company, St. Louis, Mo.), 100 μg/ml phenylmethylsulfonyl fluoride, and 100 U/ml aprotinin (Pierce Chemical Company, Rockford, Ill.). […] Primary salivary acinar cells were lysed in JNK lysis buffer (25 mM HEPES, pH 7.5, 20 mM β-glycerophosphate, 0.1 mM sodium orthovandadate, 0.1% Triton X-100, 0.3M NaCl, 1.5 mM MgCl2, 0.2 mM EDTA, 0.5 mM dithiothreitol, and 10 mM NaF) supplemented with aprotinin (4 μg/ml), Prefebloc (0.5 mg/ml), and leupeptin (2 μg/ml) (Pierce Chemical Company) and 1 mM sodium orthovandate, and the lysates clarified by centrifugation at 4° C. for 30 min at 13,000 rpm in a refrigerated Savant microcentrifuge (Anderson et al., 1999). Protein concentrations were determined using the BCA Protein Assay Kit (Pierce Chemical Company). […]

[3] = test system: Akt; test: IGF1 activation of endogenous Akt in the salivary gland after tail vein injection (anti-phospho-Akt immunoblot); type: in vivo, mice; conditions: for activation of Akt (immunoblotting with anti-phospho-Akt (threonine^473) antibody): salivary gland
Description: (§1) FIGS. 12A-C—IGF1 activation of Akt in vivo and rescue of salivary flow rates 3 days after single γ-irradiation exposure. (FIG. 12A) FVB mice received an injection of 1, 5, 10, or 50 ng/ml recombinant IGF1. Tissue lysates were collected for immunoblotting five minutes after injection and membranes were probed for activation of Akt using a phosphorylation specific antibody. (FIG. 12B) FVB mice received an injection of 5 μg/ml recombinant IGF1 and tissue lysates were collected for immunoblotting 0, 5, 10 or 30 min after injection. Membranes were probed for activated Akt as described in FIG. 12A. Membranes were stripped and re-probed with a total antibody against ERK1/2 as a loading control in both A and B. (FIG. 12C) Four-week old female FVB mice were injected with 5 μg/ml recombinant IGF1 immediately prior to treatment with 1Gy γ-irradiation. Total saliva was collected following carbachol injection as described in FIG. 11 three days after radiation exposure. For Untreated, N=10; for IGF1, N=5; for 1 Gy, N=10, and for 1 Gy+IGF1, N=7. Statistical analysis was performed using Student's t-test in Microsoft Excel.
(§2) γ-irradiation treatment. For in vivo experiments, four-week old female FVB and myr-Akt1 transgenic mice were anesthetized with avertin (0.4-0.6 mg/gm, IP) and the head and neck region was exposed to ionizing radiation using a RS 2000 Biological Irradiator (Humphries et al., 2006). The rest of the body was shielded with 6 mm lead foil and sheets to avoid systemic effects of γ-irradiation. […] For IGF1 injections, mice were anesthetized with avertin and tails were warmed in water to allow dilation of blood vessels. Mice were injected with a total volume of 100 μl of IGF1 diluted in sterile PBS and immediately placed into the radiation chamber.
Stimulation of cells with both IGF1 and EGF produced a synergistic activation of Akt and suppression of apoptosis (Limesand et al., 2003). […] Mice were injected with 1, 5, 10, or 50 μg recombinant IGF1 and the activation of Akt was examined in the salivary gland five minutes after injection.
The inventors also determined the kinetics with which Akt was activated following injection of mice with 5 μg IGF1. Salivary glands were removed at 5, 10, and 30 minutes post-injection, tissue lysates prepared, and the activation of Akt examined by immunoblotting with anti-phospho-Akt ([…]) antibody (FIG. 12B). […] Future studies are needed to determine whether Akt remains activated for longer periods of time.

[4] = test system: FVB mice; test: Salivary flow rate after head and neck γ-irradiation (carbachol-stimulated saliva collection); type: in vivo
Description: FIG. 11—Rescue of salivary flow rates 3 days after single γ-irradiation exposure in Myr-Akt1 mice. Four-week old female FVB and myr-Akt1 mice were exposed to 1, 2, or 5Gy γ-irradiation. Three days after irradiation total saliva was collected (over a five-minute period) following carbachol injection. Statistical analysis was performed using Student's t-test in Microsoft Excel.
as §1
FIG. 13—Rescue of salivary flow rates 30 days after single γ-irradiation exposure by Myr-Akt1 or injection with IGF1. Four-week old female FVB, myr-Akt1 and FVB mice injected with 5 μg/ml recombinant IGF1 were exposed to 1Gy γ-irradiation. IGF1 injections were performed immediately prior to radiation exposure as described in FIGS. 12A-C. Thirty days after exposure to γ-irradiation total saliva was collected following carbachol injection as described in FIG. 11. For unirradiated, untreated, N=8; for unirradiated myr-Akt1, N=8; for unirradiated IGF1 injected, N=8; for 1 Gy irradiated FVB, N=8, for myr-Akt1 riiadiated with 1 Gy, N=6, for FVB that received IGF1 and I Gy, N=6. Statistical analysis was performed using multiple comparison testing in the SAS system.
as §2, with “Mice were injected with a total volume of 100 μl of IGF1 diluted in sterile PBS and immediately placed into the radiation chamber.” left out

[5] = test system: salivary acinar cells; test: Activated caspase-3 staining of irradiated salivary glands (apoptotic cells); type: in vivo; conditions: pretreatment of mice with IGF1
Description: Activated caspase-3 staining. Salivary glands were removed at various time points post-irradiation, fixed in 10% neutral buffered formalin, and then embedded in paraffin. Slides were stained for activated caspase-3 (Cell Signaling #9661; Beverly, Mass.) as previously described (Humphries et al., 2006). Cell counts were performed on a minimum of five fields of view per slide from three mice (total cells counted ranged from 1800-2500 per mouse).

[6] = test system: salivary acinar cells; conditions: cited from earlier work

Compound | apoptosis of salivary acinar cells ([1]; cells from FVB control mice) | apoptosis (caspase-3 activation) ([1]; myr-Akt1 salivary acinar cells, 18 hrs after treatment) | phosphorylation of ATM at serine^1981 [2] | phosphorylated Akt thirty minutes following administration ([3]; 5 μg IGF1, salivary gland) | time of maximal activation of Akt after injection ([3]; 5 μg IGF1, salivary glands removed at 5, 10 and 30 minutes) | activation of Akt (immunoblotting with anti-phospho-Akt (threonine^473) antibody) ([3]; five minutes after injection of 1 μg and 5 μg IGF1) | activation of Akt (immunoblotting with anti-phospho-Akt (threonine^473) antibody) ([3]; five minutes after injection of 10 and 50 μg IGF1 per mouse) | salivary flow rate, IGF1 alone ([4]; 5 μg IGF1, unirradiated mice, three days following injection) | salivary flow rate versus unirradiated FVB control mice ([4]; IGF1 injected, unirradiated, thirty-day time point) | irradiation-induced reduction in salivary flow rate ([4]; single dose of 5 μg recombinant IGF1 immediately prior to 1 Gy, three days after exposure) | decrease in salivary flow rate compared to controls ([4]; single dose of IGF1 prior to 1 Gy γ-irradiation, 30 days after exposure) | number of apoptotic cells after irradiation [5] | activation of Akt [6] | apoptosis induced by etoposide [6]
COc1cc([C@@H]2c3cc4c(cc3[C@@H](O[C@@H]3O[C@@H]5CO[C@@H](C)O[C@H]5[C@H](O)[C@H]3O)[C@H]3COC(=O)[C@H]23)OCO4)cc(OC)c1O [etoposide] | induce apoptosis | did induce some apoptosis | resulted in the phosphorylation of ATM |  |  |  |  |  |  |  |  |  |  | 
IGF1: recombinant IGF1, activator of the Akt pathway, injected into the tail vein of mice |  |  |  | could still be detected | five | results in the activation of Akt | did not result in the activation of Akt | had no effect | not a statistical difference | completely suppressed | no decrease in salivary flow rate | significantly decreases the number of apoptotic cells | induces activation of Akt | suppresses apoptosis
